Results reported in PubChem BioAssay (NCI).
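How tested: cells in 96-well plates exposed to compound for 48 hours at five concentrations. At the GI50, growth is halved. TGI denotes the concentration required for complete inhibition of growth.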

Legend:
Test in all cases: DTP human tumour cell line panel, 48 h
786-0 renal = test system: 786-0 renal
A498 renal = test system: A498 renal
A549 NSCLC = test system: A549 NSCLC
ACHN renal = test system: ACHN renal
BT-549 breast = test system: BT-549 breast
CAKI-1 renal = test system: CAKI-1 renal
COLO 205 colon = test system: COLO 205 colon
DU-145 prostate = test system: DU-145 prostate
EKVX NSCLC = test system: EKVX NSCLC
HCC-2998 colon = test system: HCC-2998 colon
HCT-116 colon = test system: HCT-116 colon
HCT-15 colon = test system: HCT-15 colon
HL-60(TB) leukemia = test system: HL-60(TB) leukemia
HOP-62 NSCLC = test system: HOP-62 NSCLC
HOP-92 NSCLC = test system: HOP-92 NSCLC
HS 578T breast = test system: HS 578T breast
HT29 colon = test system: HT29 colon
K-562 leukemia = test system: K-562 leukemia
KM12 colon = test system: KM12 colon
LOX IMVI melanoma = test system: LOX IMVI melanoma
M14 melanoma = test system: M14 melanoma
MALME-3M melanoma = test system: MALME-3M melanoma
MCF7 breast = test system: MCF7 breast
MDA-MB-231 breast = test system: MDA-MB-231 breast
MDA-MB-435 = test system: MDA-MB-435
MDA-MB-468 breast = test system: MDA-MB-468 breast
MOLT-4 leukemia = test system: MOLT-4 leukemia
NCI-H226 lung = test system: NCI-H226 lung
NCI-H23 lung = test system: NCI-H23 lung
NCI-H460 lung = test system: NCI-H460 lung
NCI-H522 lung = test system: NCI-H522 lung
OVCAR-3 ovarian = test system: OVCAR-3 ovarian
OVCAR-4 ovarian = test system: OVCAR-4 ovarian
OVCAR-5 ovarian = test system: OVCAR-5 ovarian
OVCAR-8 ovarian = test system: OVCAR-8 ovarian
PC-3 prostate = test system: PC-3 prostate
RPMI-8226 leukemia = test system: RPMI-8226 leukemia
RXF 393 renal = test system: RXF 393 renal
SF-268 CNS = test system: SF-268 CNS
SF-295 CNS = test system: SF-295 CNS
SF-539 CNS = test system: SF-539 CNS
SK-MEL-2 melanoma = test system: SK-MEL-2 melanoma
SK-MEL-28 melanoma = test system: SK-MEL-28 melanoma
SK-MEL-5 melanoma = test system: SK-MEL-5 melanoma
SK-OV-3 ovarian = test system: SK-OV-3 ovarian
SN12C renal = test system: SN12C renal
SNB-19 CNS = test system: SNB-19 CNS
SNB-75 CNS = test system: SNB-75 CNS
SR leukemia = test system: SR leukemia
SW-620 colon = test system: SW-620 colon
T-47D breast = test system: T-47D breast
TK-10 renal = test system: TK-10 renal
U251 CNS = test system: U251 CNS
UACC-257 melanoma = test system: UACC-257 melanoma
UACC-62 melanoma = test system: UACC-62 melanoma

SMILES: COc1cc(C2CC(c3ccc(Cl)cc3)=Nc3c(N)nc(N)nc3N2)ccc1Oc1nc(Nc2ccc(F)cc2)nc(N(C)C)n1 (stereo not given)
- GI50 (786-0 renal): > 100 µM
- TGI (786-0 renal): > 100 µM
- GI50 (A498 renal): > 100 µM
- TGI (A498 renal): > 100 µM
- GI50 (A549 NSCLC): > 100 µM
- TGI (A549 NSCLC): > 100 µM
- GI50 (ACHN renal): > 100 µM
- TGI (ACHN renal): > 100 µM
- GI50 (BT-549 breast): 35.5 µM
- TGI (BT-549 breast): > 100 µM
- GI50 (CAKI-1 renal): 3.38 µM
- TGI (CAKI-1 renal): > 100 µM
- GI50 (COLO 205 colon): > 100 µM
- TGI (COLO 205 colon): > 100 µM
- GI50 (DU-145 prostate): > 100 µM
- TGI (DU-145 prostate): > 100 µM
- GI50 (EKVX NSCLC): > 100 µM
- TGI (EKVX NSCLC): > 100 µM
- GI50 (HCC-2998 colon): 45.3 µM
- TGI (HCC-2998 colon): > 100 µM
- GI50 (HCT-116 colon): 12.5 µM
- TGI (HCT-116 colon): > 100 µM
- GI50 (HCT-15 colon): 76.6 µM
- TGI (HCT-15 colon): > 100 µM
- GI50 (HL-60(TB) leukemia): 44.7 µM
- TGI (HL-60(TB) leukemia): > 100 µM
- GI50 (HOP-62 NSCLC): > 100 µM
- TGI (HOP-62 NSCLC): > 100 µM
- GI50 (HOP-92 NSCLC): 3 µM
- TGI (HOP-92 NSCLC): > 100 µM
- GI50 (HS 578T breast): 84.8 µM
- TGI (HS 578T breast): > 100 µM
- GI50 (HT29 colon): 29.4 µM
- TGI (HT29 colon): > 100 µM
- GI50 (K-562 leukemia): 4.5 µM
- TGI (K-562 leukemia): > 100 µM
- GI50 (KM12 colon): 40.1 µM
- TGI (KM12 colon): > 100 µM
- GI50 (LOX IMVI melanoma): 47.8 µM
- TGI (LOX IMVI melanoma): > 100 µM
- GI50 (M14 melanoma): > 100 µM
- TGI (M14 melanoma): > 100 µM
- GI50 (MALME-3M melanoma): > 100 µM
- TGI (MALME-3M melanoma): > 100 µM
- GI50 (MCF7 breast): 9.91 µM
- TGI (MCF7 breast): > 100 µM
- GI50 (MDA-MB-231 breast): 6.73 µM
- TGI (MDA-MB-231 breast): > 100 µM
- GI50 (MDA-MB-435): > 100 µM
- TGI (MDA-MB-435): > 100 µM
- GI50 (MDA-MB-468 breast): 17.8 µM
- TGI (MDA-MB-468 breast): > 100 µM
- GI50 (MOLT-4 leukemia): 8.54 µM
- TGI (MOLT-4 leukemia): > 100 µM
- GI50 (NCI-H226 lung): > 100 µM
- TGI (NCI-H226 lung): > 100 µM
- GI50 (NCI-H23 lung): > 100 µM
- TGI (NCI-H23 lung): > 100 µM
- GI50 (NCI-H460 lung): 42.3 µM
- TGI (NCI-H460 lung): > 100 µM
- GI50 (NCI-H522 lung): > 100 µM
- TGI (NCI-H522 lung): > 100 µM
- GI50 (OVCAR-3 ovarian): > 100 µM
- TGI (OVCAR-3 ovarian): > 100 µM
- GI50 (OVCAR-4 ovarian): 18.9 µM
- TGI (OVCAR-4 ovarian): > 100 µM
- GI50 (OVCAR-5 ovarian): > 100 µM
- TGI (OVCAR-5 ovarian): > 100 µM
- GI50 (OVCAR-8 ovarian): > 100 µM
- TGI (OVCAR-8 ovarian): > 100 µM
- GI50 (PC-3 prostate): 6.16 µM
- TGI (PC-3 prostate): > 100 µM
- GI50 (RPMI-8226 leukemia): 26.4 µM
- TGI (RPMI-8226 leukemia): > 100 µM
- GI50 (RXF 393 renal): 2.46 µM
- TGI (RXF 393 renal): > 100 µM
- GI50 (SF-268 CNS): > 100 µM
- TGI (SF-268 CNS): > 100 µM
- GI50 (SF-295 CNS): > 100 µM
- TGI (SF-295 CNS): > 100 µM
- GI50 (SF-539 CNS): > 100 µM
- TGI (SF-539 CNS): > 100 µM
- GI50 (SK-MEL-2 melanoma): > 100 µM
- TGI (SK-MEL-2 melanoma): > 100 µM
- GI50 (SK-MEL-28 melanoma): > 100 µM
- TGI (SK-MEL-28 melanoma): > 100 µM
- GI50 (SK-MEL-5 melanoma): 17.2 µM
- TGI (SK-MEL-5 melanoma): 52 µM
- GI50 (SK-OV-3 ovarian): > 100 µM
- TGI (SK-OV-3 ovarian): > 100 µM
- GI50 (SN12C renal): > 100 µM
- TGI (SN12C renal): > 100 µM
- GI50 (SNB-19 CNS): > 100 µM
- TGI (SNB-19 CNS): > 100 µM
- GI50 (SNB-75 CNS): 3.24 µM
- TGI (SNB-75 CNS): > 100 µM
- GI50 (SR leukemia): 3.41 µM
- TGI (SR leukemia): > 100 µM
- GI50 (SW-620 colon): > 100 µM
- TGI (SW-620 colon): > 100 µM
- GI50 (T-47D breast): > 100 µM
- TGI (T-47D breast): > 100 µM
- GI50 (TK-10 renal): > 100 µM
- TGI (TK-10 renal): > 100 µM
- GI50 (U251 CNS): > 100 µM
- TGI (U251 CNS): > 100 µM
- GI50 (UACC-257 melanoma): > 100 µM
- TGI (UACC-257 melanoma): > 100 µM
- GI50 (UACC-62 melanoma): > 100 µM
- TGI (UACC-62 melanoma): > 100 µM
